Assay type in all cases: functional
Assay [1] can be described thus: Cytotoxicity against human leukemia cells assessed as cell growth after 48 hrs by SRB assay. A general note: The SRB assay estimates cell density from bound dye.
For another assay, the system named is NSCLC. Put plainly: Cytotoxicity against human NSCLC cells assessed as cell growth after 48 hrs by SRB assay.
Assay [2] can be described thus: Cytotoxicity against human colon cancer cells assessed as cell growth after 48 hrs by SRB assay. The note with it: Cancer cell lines.
The nature of assay [3]: Cytotoxicity against human CNSC cells assessed as cell growth after 48 hrs by SRB assay.
Assay [4] is described as follows: Cytotoxicity against human melanoma cells assessed as cell growth after 48 hrs by SRB assay.
The nature of assay [5]: Cytotoxicity against human ovarian cancer cells assessed as cell growth after 48 hrs by SRB assay. The following applies: Cancer cell lines.
Assay [6] can be described thus: Cytotoxicity against human renal cancer cells assessed as cell growth after 48 hrs by SRB assay. The following applies: Cancer cell lines.
A short description of assay [7]: Cytotoxicity against human prostate cancer cells assessed as cell growth after 48 hrs by SRB assay. The note with it: Cancer cell lines.
A short description of assay [8]: Cytotoxicity against human breast cancer cells assessed as cell growth after 48 hrs by SRB assay. The following applies: Cancer cell lines.

Structures are written as SMILES.

As usually defined, the GI50 is the concentration giving 50% growth inhibition. As for `COc1ccc(C(=O)Cn2c(C(=O)c3ccc(OC)cc3)nc3ccccc32)cc1`, the GI50 in assay [1] is 0.741 µM; in the assay with NSCLC it was 15.1 µM; in [2], 1.26 µM; in assay [3], 3.31 µM; in assay [4] it was 3.24 µM; in [5], 3.02 µM. For the same compound, the GI50 in [6] is 3.89 µM; in assay [7], 2.95 µM; in [8], 2.4 µM.

For `O=C(Cn1c(C(=O)c2ccccc2)nc2ccccc21)c1ccccc1`, the GI50 in assay [1] is 52.5 µM; in the assay with NSCLC, 69.2 µM; in assay [2], 63.1 µM; in assay [3], 83.2 µM; in [4] it was 100 µM; in assay [5], 100 µM. Also, the GI50 in assay [6] is 87.1 µM; in [7], 72.4 µM; in assay [8], 9.33 µM.

As for `COc1ccc(C(=O)Cn2c(C(=O)c3ccccc3)nc3ccccc32)cc1`, the GI50 in [1] is 0.724 µM; in the assay on NSCLC, 9.33 µM; in [2], 1.51 µM; in assay [3] it was 3.98 µM; in assay [4], 2.95 µM; in [5] it was 3.63 µM. Moreover, the GI50 in assay [6] was 3.24 µM; in assay [7], 3.24 µM; in assay [8] it was 2.24 µM.

As for `O=C(Cn1c(C(=O)c2ccccc2)nc2ccccc21)c1ccc(F)cc1`, the GI50 in [1] was 1.41 µM; in the assay with NSCLC, 18.6 µM; in [2] it was 3.55 µM; in assay [3], 8.51 µM; in [4] it was 4.57 µM; in assay [5] it was 10.7 µM. Besides, the GI50 is 2.75 µM in [6], 13.5 µM in [7] and 3.98 µM in assay [8].

Consider `COc1ccc(C(=O)c2nc3ccccc3n2CC(=O)c2ccc(Cl)cc2)cc1`, for which the GI50 in [1] is 0.724 µM; in the assay on NSCLC, 14.5 µM; in [2], 2.51 µM; in assay [3] it was 3.39 µM; in [4] it was 2.45 µM; in assay [5], 5.25 µM. Moreover, the GI50 in [6] was 3.72 µM; in assay [7], 3.02 µM; in [8], 3.47 µM.

As to `COc1ccc(C(=O)Cn2c(C(=O)c3ccc(Cl)cc3)nc3ccccc32)cc1`, the GI50 in assay [1] was 2.57 µM; in the assay with NSCLC it was 18.6 µM; in assay [2], 5.01 µM; in assay [3], 16.6 µM; in assay [4], 9.55 µM; in [5] it was 17.8 µM. Besides, the GI50 in assay [6] is 14.1 µM; in assay [7], 24 µM; in assay [8], 6.17 µM.

With `N[C@@H](Cc1ccc(N(CCCl)CCCl)cc1)C(=O)O`, the GI50 in [1] is 3.31 µM; with NSCLC, 6.76 µM; in [2], 7.76 µM; in assay [3], 7.59 µM; in [4] it was 8.32 µM; in assay [5], 6.61 µM. The GI50 is 10.2 µM in assay [6], 32.4 µM in assay [7] and 16.2 µM in [8].

For the origin of these results see ChEMBL document CHEMBL1649389, “Microwave supported synthesis of some novel 1,3-diarylpyrazino[1,2-a]benzimidazole derivatives and investigation of their anticancer activities” (2011).
